Results as given in patent US20250185948A1, “WEARABLE APTAMER MICRONEEDLE PATCH FOR CONTINUOUS MINIMALLY-INVASIVE BIOMONITORING” (THE REGENTS OF THE UNIVERSITY OF CALIFORNIA, priority 2022, published 2025).

What was measured:
[1] = AMPatch in-vivo tobramycin PK monitoring in a rat model (ISF sensor readout and blood LC-MS/MS); set-up: species or system Sprague-Dawley rats; details: intravenous tobramycin 20 mg/kg, different animals
Source text: More particularly, the developed AMPatch was applied to monitor the PK profile of tobramycin in dermal ISF using a rat model and investigate the drug's ISF-blood correlation. Accordingly, used were three healthy adult Sprague-Dawley rats and the animals were anesthetized during the test (FIG. 4A). An AMPatch was placed at the back of the animal to render continuous ISF monitoring upon intravenous tobramycin injection. […] To investigate the drug's ISF-blood correlation, blood samples were simultaneously collected before and at intermittent time points after drug injection, followed by standard lab analysis (liquid chromatography with tandem mass spectrometry, LC-MS/MS). The acquired PK readouts were interpreted using a two compartment-based pharmacokinetic model, which captures the drug's distribution (e.g., from blood to ISF) and elimination processes (FIG. 4B). The blood-ISF correlation was evaluated by comparing the drug's circulating AUC (AUC_blood) versus the AUC and the maximum concentrations of ISF drug, where the ISF concentrations can be equivalently presented by the measured sensor response (denoting AUC_ISF and R_max, respectively).
An AMPatch according to embodiments was first deployed in a manner to assess its capability of tracking the ISF PK profile in-vivo. […]

[2] = tobramycin treatments; cited from earlier work

AUC ([1]; Sprague-Dawley, blood LC-MS/MS, read-out: AUC_blood): 176 µM·h
AUC_ISF ([1]; dermal ISF, AMPatch sensor response): 7.7±5.2 %·h
Compound: NC[C@H]1O[C@H](O[C@H]2[C@H](O)[C@@H](O[C@H]3O[C@H](CO)[C@@H](O)[C@H](N)[C@H]3O)[C@H](N)C[C@@H]2N)[C@H](N)C[C@@H]1O [tobramycin]
rate of nephrotoxicity incidence [2]: 12%
